# Results taken from patent publication US20170009266A1, “PROCESS FOR THE ATTACHMENT OF A GALNAC MOIETY COMPRISING A (HETERO)ARYL GROUP TO A GLCNAC MOIETY, AND PRODUCT OBTAINED THEREBY” (SYNAFFIX B.V., priority 2014, published 2017).
# Substitutions are numbered along the chain they refer to.
# What was measured:
# [1] = biological target: T1, Gal-T1(Y289A) (Bos taurus, UniProt P08037, I205M/L206V/P187L/V158I/Y289A); test: Glycosyltransfer to trimmed trastuzumab with Gal-T1(Y289A) expressed in CHO; type: biochemical, bovine; conditions: trimmed trastuzumab 10 mg/mL; UDP derivative 5 mM; enzyme 0.5 mg/mL; pH 8.0, 30° C. overnight
# T1 construct: host or cells: CHO K1
# T1 sequence (P08037 74-402 V158I/P187L/I205M/L206V/Y289A): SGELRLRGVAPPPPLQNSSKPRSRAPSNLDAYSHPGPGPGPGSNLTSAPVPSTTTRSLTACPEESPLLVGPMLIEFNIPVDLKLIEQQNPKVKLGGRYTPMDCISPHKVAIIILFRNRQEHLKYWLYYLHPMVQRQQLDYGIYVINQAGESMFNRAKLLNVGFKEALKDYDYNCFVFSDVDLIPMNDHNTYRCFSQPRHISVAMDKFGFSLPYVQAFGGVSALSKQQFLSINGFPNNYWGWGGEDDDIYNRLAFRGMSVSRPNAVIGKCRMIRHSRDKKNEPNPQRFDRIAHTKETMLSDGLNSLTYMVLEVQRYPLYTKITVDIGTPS
# Description: (§1) A set of Gal-T 1 mutants encoding residues 74-402 of bovine Gal-T 1 were transiently expressed in CHO K1 cells by Evitria (Zurich, Switzerland) which include the Gal-T1 single mutants Y289L (represented by SEQ ID NO: 26), Y289F (represented by SEQ ID NO: 27), Y289M (represented by SEQ ID NO: 28), Y289V (represented by SEQ ID NO: 29), Y289A (represented by SEQ ID NO: 30), and Y289G (represented by SEQ ID NO: 31), and the Gal-T1 double mutants Y289L,C342T (represented by SEQ ID NO: 32), and Y289M,C342T (represented by SEQ ID NO: 33). The mutants were purified using a cation exchange column (Source 15S HR16/10 column, GE Healthcare) as described above. Purified proteins were analyzed by SDS-PAGE.
# Trimmed trastuzumab (10 mg/mL, […] obtained by Endo S treatment of trastuzumab, was incubated with the 4-azido-3,5-difluorobenzoyl derivative of UDP-galactosamine (23, 5 mM) and one of the Gal-T1 single mutants Y289L, Y289M, Y289A or Y289G (expressed in CHO as described above) (0.5 mg/mL) in 10 mM MnCl2 and 25 mM Tris-HCl pH 8.0 at 30° C. overnight. Mass spectral analysis of the reduced sample indicated a partial conversion of the core GlcNac(Fuc)-substituted trastuzumab heavy chain (49504 Da) into product 30 (49818 to 49825 Da, 20 to 50% of total heavy chain depending on the Gal-T1 mutant used), resulting from transfer of 23 to core GlcNAc(Fuc)-substituted trastuzumab heavy chain. […]
# [2] = biological target: T2, Gal-T1(Y289L,C342T) (Bos taurus, UniProt P08037, C342T/Y289L); test: Glycosyltransfer to trimmed trastuzumab with Gal-T1(Y289L,C342T) expressed in CHO; type: biochemical, bovine; conditions: trimmed trastuzumab 10 mg/mL; UDP derivative 5 mM; enzyme 2.0 mg/mL; pH 8.0, 30° C. overnight
# T2 construct: host or cells: CHO K1
# T2 sequence (P08037 74-402 V158I/P187L/I205M/L206V/Y289L/C342T): T1 sequence (P08037 74-402 V158I/P187L/I205M/L206V/Y289A) with A216L, C269T
# Protocol: A solution of 20 μg (modified) IgG was incubated for 1 hour at 37° C. with Fabricator™ (commercially available from Genovis, Lund, Sweden) (1.25 U/μL) in phosphate-buffered saline (PBS) pH 6.6 in a total volume of 10 μL. Fabricator™-digested samples were washed trice with milliQ using an Amicon Ultra-0.5, Ultracel-10 Membrane (Millipore) resulting in a final sample volume of approximately 40 μL. The Fc/2 fragment was analyzed by electrospray ionization time-of-flight (ESI-TOF) on a JEOL AccuTOF. Deconvoluted spectra were obtained using Magtran software.
# as §1, with “SDS-PAGE. […]” for “SDS-PAGE.”
smiles,measurement,setting,value
"[N-]=[N+]=Nc1c(F)cc(C(=O)N[C@H]2[C@@H](OP(=O)(O)OP(=O)(O)OC[C@H]3O[C@@H](n4ccc(=O)[nH]c4=O)[C@H](O)[C@@H]3O)O[C@H](CO)[C@H](O)[C@@H]2O)cc1F [Compound 23, 4-azido-3,5-difluorobenzoyl Derivative of UDP-GalNH2]",observed conversion,[1],approximately 20%
same,conversion of core GlcNAc(Fuc)-substituted trastuzumab into product,[2],complete conversion
